Data: PubChem BioAssay AID248 (DTP/NCI, 2004)
Several values for one entry are separate records, joined by “and”; a condition that tells them apart may be missing. Equal entries are not always repeated. Inconclusive results and toxic doses are left out. No stated cut-off is given here; in the data, active means T/C of 150% or more; inactive means T/C below 125%.

System: L1210 leukemia ip in BDF1 mice, survival T/C
Assay: NCI In Vivo Anticancer Drug Screen. Data for tumor model L1210 Leukemia (intraperitoneal) in B6D2F1 (BDF1) mice
Settings: endpoint: mean survival time, higher = longer survival
Outline: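 Tumor was transplanted into mice, which were then dosed with test compound or vehicle alone. Survival was recorded for each group, and the treated figure was expressed relative to the control figure.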

[1] = dose: 50.0 mg/kg/injection, schedule: Q01DX009 (ip), vehicle: saline
[2] = dose: 100.0 mg/kg/injection, schedule: Q01DX009 (ip), vehicle: saline
[3] = dose: 200.0 mg/kg/injection, schedule: Q01DX009 (ip), vehicle: saline
[4] = dose: 100.0 mg/kg/injection, schedule: Q04DX002 (ip), vehicle: Klucel (hydroxypropylcellulose) (HPC)
[5] = dose: 100.0 mg/kg/injection, schedule: Q04DX003 (ip), vehicle: saline with Tween-80
[6] = dose: 200.0 mg/kg/injection, schedule: Q04DX003 (ip), vehicle: saline with Tween-80
[7] = dose: 400.0 mg/kg/injection, schedule: Q04DX003 (ip), vehicle: saline with Tween-80
[8] = dose: 100.0 mg/kg/injection, schedule: Q04DX003 (ip), vehicle: Klucel (hydroxypropylcellulose) (HPC)
[9] = dose: 200.0 mg/kg/injection, schedule: Q04DX003 (ip), vehicle: Klucel (hydroxypropylcellulose) (HPC)
[10] = dose: 100.0 mg/kg/injection, schedule: Q01DX009 (ip), vehicle: Klucel (hydroxypropylcellulose) (HPC)
[11] = dose: 200.0 mg/kg/injection, schedule: Q01DX009 (ip), vehicle: Klucel (hydroxypropylcellulose) (HPC)
[12] = dose: 100.0 mg/kg/injection, schedule: Q01DX009 (ip), vehicle: saline with Tween-80
[13] = dose: 100.0 mg/kg/injection, schedule: Q04DX003 (ip), vehicle: saline
[14] = dose: 200.0 mg/kg/injection, schedule: Q01DX009 (ip), vehicle: saline with Tween-80
[15] = dose: 200.0 mg/kg/injection, schedule: Q04DX003 (ip), vehicle: saline

Measured: T/C

N=C(N)Sc1cc(O)ccc1O
inactive: [1] 94 % of control | [2] 93 % of control | dose: 100.0 mg/kg/injection, schedule: Q04DX003 (ip), vehicle: alcohol 102 % of control | [3] 96 % of control | dose: 200.0 mg/kg/injection, schedule: Q04DX003 (ip), vehicle: alcohol 104 % of control

CCCCCCCCCCCCC(=O)N(CCCC)CCCC
inactive: [4] 92 % of control | dose: 200.0 mg/kg/injection, schedule: Q04DX002 (ip), vehicle: Klucel (hydroxypropylcellulose) (HPC) 96 % of control | dose: 400.0 mg/kg/injection, schedule: Q04DX002 (ip), vehicle: Klucel (hydroxypropylcellulose) (HPC) 103 % of control

CCCCCCCCCCCCCCCCOc1ccc(C(=O)OC)cc1[N+](=O)[O-]
inactive: [5] 94 % of control | [6] 90 % of control | [7] 87 % of control

CC1OCC(C)(CO)CO1 (configuration not stated)
inactive: [1] 102 % of control | [2] 101 % of control | dose: 100.0 mg/kg/injection, schedule: Q04DX003 (ip), vehicle: acetone 106 % of control | [3] 98 % of control | dose: 200.0 mg/kg/injection, schedule: Q04DX003 (ip), vehicle: acetone 122 % of control | dose: 400.0 mg/kg/injection, schedule: Q04DX003 (ip), vehicle: acetone 111 % of control

CC(C)N1C(=O)OC2(CCN(CCCSc3ccc(F)cc3)CC2)C1=O
inactive: [8] 103 % of control | [9] 103 % of control | dose: 400.0 mg/kg/injection, schedule: Q04DX003 (ip), vehicle: Klucel (hydroxypropylcellulose) (HPC) 103 % of control

CO[C@H]1C[C@H](O[C@H]2CC[C@]3(C=O)[C@H]4CC[C@]5(C)[C@@H](C6=CC(=O)OC6)CC[C@]5(O)[C@@H]4CC[C@]3(O)C2)O[C@H](C)[C@H]1O[C@@H]1O[C@H](CO[C@@H]2O[C@H](CO)[C@@H](O)[C@H](O)[C@H]2O)[C@@H](O)[C@H](O)[C@H]1O
inactive: dose: 0.25 mg/kg/injection, schedule: Q01DX001 (sc), vehicle: steriod suspending solution 98 % of control | dose: 0.5 mg/kg/injection, schedule: Q01DX001 (sc), vehicle: steriod suspending solution 96 % of control | dose: 1.0 mg/kg/injection, schedule: Q01DX001 (sc), vehicle: steriod suspending solution 98 % of control | dose: 2.0 mg/kg/injection, schedule: Q01DX001 (sc), vehicle: steriod suspending solution 98 % of control

Cc1c(C(=O)CCl)c(=O)n(-c2ccccc2)n1C
inactive: dose: 50.0 mg/kg/injection, schedule: Q01DX009 (ip), vehicle: Klucel (hydroxypropylcellulose) (HPC) 100 % of control | [10] 100 % of control | [8] 95 % of control | [9] 101 % of control

COc1ccccc1-n1c(O)c(N=Nc2ccccc2C)c(=O)n(-c2ccc(Cl)cc2)c1=S
inactive: dose: 100.0 mg/kg/injection, schedule: Q01DX001 (ip), vehicle: Klucel (hydroxypropylcellulose) (HPC) 95 % of control | dose: 200.0 mg/kg/injection, schedule: Q01DX001 (ip), vehicle: Klucel (hydroxypropylcellulose) (HPC) 96 % of control | dose: 400.0 mg/kg/injection, schedule: Q01DX001 (ip), vehicle: Klucel (hydroxypropylcellulose) (HPC) 98 % of control

CCOc1ccc(NC(=O)c2c(Br)c(Br)c(Br)c(Br)c2C(=O)O)cc1
inactive: [10] 102 % of control | [11] 87 % of control

C/C=C1/C[N+]2(C)CCC34C(=C(C(=O)OC)C1CC32)Nc1ccc(O)cc14 (configuration not stated)
inactive: dose: 6.25 mg/kg/injection, schedule: Q01DX001 (ip), vehicle: saline with Tween-80 97 % of control | dose: 12.5 mg/kg/injection, schedule: Q01DX001 (ip), vehicle: saline with Tween-80 102 % of control | dose: 25.0 mg/kg/injection, schedule: Q01DX001 (ip), vehicle: saline with Tween-80 96 % of control

O=C(O)CSC(=S)c1ccccc1
inactive: dose: 25.0 mg/kg/injection, schedule: Q04DX002 (ip), vehicle: saline with Tween-80 103 % of control | dose: 50.0 mg/kg/injection, schedule: Q04DX002 (ip), vehicle: saline with Tween-80 103 % of control | dose: 50.0 mg/kg/injection, schedule: Q04DX003 (ip), vehicle: Klucel (hydroxypropylcellulose) (HPC) 108 % of control | [12] 93 % of control | dose: 100.0 mg/kg/injection, schedule: Q04DX002 (ip), vehicle: saline with Tween-80 118 % of control | [8] 97 % of control | [13] 97 % of control | [14] 93 % of control | [9] 105 % of control | [15] 100 % of control | dose: 400.0 mg/kg/injection, schedule: Q04DX003 (ip), vehicle: saline 97 % of control

Cc1ccc(NC(=O)Nc2ccccc2C(F)(F)F)cc1NC(=O)Nc1ccccc1C(F)(F)F
inactive: [12] 92 % of control | [14] 90 % of control | dose: 400.0 mg/kg/injection, schedule: Q01DX009 (ip), vehicle: saline with Tween-80 92 % of control

O=C1N/C(=N\OCc2ccccc2)CC(NOCc2ccccc2)N1 (configuration not stated)
inactive: [5] 101 % of control | [6] 97 % of control | [7] 97 % of control

CC(C)CCS(=O)(=O)O
inactive: dose: 50.0 mg/kg/injection, schedule: Q01DX001 (ip), vehicle: saline 104 % of control | dose: 100.0 mg/kg/injection, schedule: Q01DX001 (ip), vehicle: saline 104 % of control | dose: 200.0 mg/kg/injection, schedule: Q01DX001 (ip), vehicle: saline 98 % of control | dose: 400.0 mg/kg/injection, schedule: Q01DX001 (ip), vehicle: saline 102 % of control

CCc1c(C)[nH]c2c1C(=O)CCC2
inactive: dose: 10.0 mg/kg/injection, schedule: Q01DX001 (ip), vehicle: saline 98 % of control | dose: 20.0 mg/kg/injection, schedule: Q01DX001 (ip), vehicle: saline 100 % of control | dose: 40.0 mg/kg/injection, schedule: Q01DX001 (ip), vehicle: saline 105 % of control

NC(CSS(=O)(=O)O)=NCCc1ccc(O)cc1
inactive: dose: 25.0 mg/kg/injection, schedule: Q04DX002 (ip), vehicle: Klucel (hydroxypropylcellulose) (HPC) 110 % of control | [4] 90 % of control and 91 % of control

CN=C1N[N+]2=C(C)CCCC2(C)S1 (configuration not stated)
inactive: [13] 101 % of control | [15] 89 % of control

Cc1ccc(N=Nc2ccc(C)cc2NC(=O)c2ccc(Cl)cc2Cl)cc1
inactive: [10] 88 % of control | [11] 97 % of control | dose: 400.0 mg/kg/injection, schedule: Q01DX009 (ip), vehicle: Klucel (hydroxypropylcellulose) (HPC) 89 % of control
